The values below come from patent US11932638B2, “Ion channel inhibitor compounds for cancer treatment” (Centre National de la Recherche Scientifique, priority 2017, dated 2024).

SMILES strings stand for the structures.

The target of this assay is T1, SK3 channel (Rattus norvegicus, UniProt P70605).
T1 construct: expressed in transfected cells
In words: Conventional manual patch clamp on HEK-rSK3 cells, SK3 channel activity. In kind it is cell-based. The conditions noted are these: for inhibition at 0.5 µM: 500 nM. An excerpt:
Cell Lines Used to Screen the Molecules on the Activity of SKCa Channels (Small Conductance Calcium-Activated Potassium Channel; SK1, SK2 and SK3) and IKCa Channels (Intermediate Conductance Calcium-Activated Potassium Channel, SK4)
Use was made of the HEK 293 T line, a foetal kidney line which was immortalised with the T antigen of the […] simian virus. This cell line is widely used on account of the ease with which these cells can be transfected with plasmids or other transfection vectors. Four stable lines were used for patch clamp experiments: HEK-hSK1, HEK-rSK2, HEK-rSK3 and HEK-IKCa/SK4 which respectively overexpress the SK1, SK2, SK3 and SK4 channels. The lines were obtained via stable transduction (Girault et al., Current Cancer Drug Targets, 2011, 11, 1111-25) and are those already routinely used to assay SK3 modulators (Potier et al. Br J Pharmacol. 2011 January; 162(2):464-79; Sevrain et al., Med. Chem. Commun., 2012, 3, 1471-1478; Sevrain et al., Organic & Biomolecular Chemistry, 2013 Jul. 21; 11(27):4479-87, Berthe W, Sevrain C M, Chantôme A, Bouchet A M, Gueguinou M, Fourbon Y, Potier-Cartereau M, Haelters J P, Couthon-Gourvès H, Vandier C, Jaffrès P A. ChemMedChem. 2016 Jul. 19; 11(14):1531-9). […] These lines therefore enabled us without difficulty to examine the effect of the molecules on the SK3 channel, and also the selectivity thereof by means of the patch clamp technique. The inhibitory activity of the non-toxic molecules was assayed on the activity of the SK3 channel. The selectivity of the molecules was determined by patch clamp on HEK cell models stably expressing the SK3 channel but also the SK1, SK2, SK3 or IKCa/SK4 channels.
Electrophysiology/Patch-Clamp
Patch clamp is a technique allowing measurement of the activity of ion channels by recording macroscopic (whole cell configuration) or microscopic (e.g. inside out configuration) ionic currents through the plasma membrane. For assay of the effect of the molecules on the SKCa/IKCa channels, two complementary techniques were used: conventional, manual patch clamp and automated patch clamp with the Nanion NPC-16 Patchliner Quattro (4 channels) (Potier et al., Mol Cancer Ther 2006, 5, 2946-53; Chantome et al., Exp Cell Res 2009, 315, 3620-30; Potier et al., Biochem Biophys Res Commun 2010, 397, 42-7; Girault et al., Current Cancer Drug Targets, 2011, 11, 1111-25; Sevrain et al., Med. Chem. Commun., 2012, 3, 1471-1478; Sevrain et al., Organic & Biomolecular Chemistry, 2013 Jul. 21; 11(27):4479-87; Chantome et al., Cancer Research, 2013 Aug. 1; 73(15):4852-61, Gueguinou M, Crottès D, Chantôme A, Rapetti-Mauss R, Potier-Cartereau M, Clarysse L, Girault A, Fourbon Y, Jézéquel P, Guérin-Charbonnel C, Fromont G, Martin P, Pellissier B, Schiappa R, Chamorey E, Mignen O, Uguen A, Borgese F, Vandier C, Soriani O. Oncogene. 2017 Jan. 23. doi: 10.1038/onc.2016.501, Berthe W, Sevrain C M, Chantôme A, Bouchet A M, Gueguinou M, Fourbon Y, Potier-Cartereau M, Haelters J P, Couthon-Gourvès H, Vandier C, Jaffrès P A. ChemMedChem. 2016 Jul. 19; 11(14):1531-9, Guéguinou M, Harnois T, Crottes D, Uguen A, Deliot N, Gambade A, Chantôme A, Haelters J P, Jaffrès P A, Jourdan M L, Weber G, Soriani O, Bougnoux P, Mignen O, Bourmeyster N, Constantin B, Lecomte T, Vandier C, Potier-Cartereau M. Oncotarget. 2016 Jun. 14; 7(24):36168-36184. doi: 10.18632/oncotarget.8786).
For conventional patch clamp, the micropipette is filled with an intrapipette medium—IPM (see composition below) and allows measurement of ionic currents at the same time as allowing maintaining of membrane potential (voltage clamp). The experimental device was composed of an anti-vibration table supporting an inverted microscope (Nikon, Eclipse TE 300). The Petri dish (Corning Incorporated, USA), containing the cells was placed on a plexiglass plate attached to the microscope stage. The pipette was connected to the amplifier (Axopatch 200B) as reference electrode which allowed closing of the electrical circuit. […]
On the technique in general: The patch-clamp technique gives a direct electrical read-out from membranes.

Usually inhibition stands for the relative decrease from the control value, in per cent.

As to `COCOc1ccc2c(c1)CCCC2N` (stereo not drawn) [Compound 103, 6-(Methoxymethoxy)-1,2,3,4-tetrahydronaphthalen-1-amine], the inhibition at 0.5 µM turned out to be 46.9%. Moreover, where the note is “50 nM”, the inhibition at 0.05 µM turned out to be 30.7%. For the setting “100 nM”, the inhibition at 0.1 µM came out at 57.9%. Moreover, where the note is “10 μM”, the inhibition at 10 µM was 83.8%.

For the molecule `Cc1cc(C)n(-c2nc(NC3CCCc4ccccc43)c3ncccc3n2)n1` (stereo not drawn) [Compound 67, 2-(3,5-Dimethylpyrazol-1-yl)-N-tetralin-1-yl-pyrido[3,2-d]pyrimidin-4-amine], the inhibition at 0.5 µM is 39.3%. In addition, where the note is “100 nM”, the inhibition at 0.1 µM was 35.3%. For the same molecule, the inhibition at 1 µM (1 μM) came out at 82.4%.

Take `Fc1ccc2c(c1)C(Nc1ncnc3cccnc13)CCC2` (stereo not drawn) [Compound 90, N-(7-fluoro-1,2,3,4-tetrahydronaphthalen-1-yl)pyrido[3,2-d]pyrimidin-4-amine]: the inhibition at 0.5 µM worked out at 39.9%. The inhibition at 0.05 µM (50 nM) came out at 16.1%.

Turning to `O=C1CCC(Nc2ncnc3cccnc23)c2ccccc21` (stereo not drawn) [Compound 152, 4-(Pyrido[3,2-d]pyrimidin-4-ylamino)tetralin-1-one], where the note is “50 nM”, the inhibition at 0.05 µM stood at 24.4%. Moreover, under “100 nM”, the inhibition at 0.1 µM was found to be 41.5%. Also, the inhibition at 10 µM (10 μM) worked out at 61.2%.

With `OC1CCC(Nc2ncnc3cccnc23)c2ccccc21` (stereo not drawn) [Compound 142-E2, 4-(Pyrido[3,2-d]pyrimidin-4-ylamino)tetralin-1-ol], the “% SK3 inhibition” value (50 nM, 0.05 µM) was 50 nM: 35.72 ± 1.79 (N = 4) %; the “% SK3 inhibition” value (100 nM, 0.1 µM) is 100 nM: 59.42 ± 3.43 (N = 4) %; the “% SK3 inhibition” value (10 μM) is on record as 10 μM: 75.11 ± 2.87 (N = 4) %.

In the case of `OC1CCC(Nc2ncnc3cccnc23)c2ccccc21` (stereo not drawn) [Compound 142-E1, 4-(Pyrido[3,2-d]pyrimidin-4-ylamino)tetralin-1-ol], the inhibition at 0.05 µM (50 nM) was 35.3%. Also, the “% SK3 inhibition” value runs as follows: (100 nM, 0.1 µM) 100 nM: 44.55 ± 5.67 (N = 5) %; (10 μM) 10 μM: 57.16 ± 5.51 (N = 4) %.

Regarding `c1ccc2c(c1)OCCC2Nc1ncnc2cccnc12` (stereo not drawn) [Compound 62, N-(3,4-dihydro-2H-1-benzopyran-4-yl)pyrido[3,2-d]pyrimidin-4-amine], the inhibition at 0.05 µM (50 nM) came out at 32.1%. Besides, the inhibition at 0.1 µM (100 nM) amounted to 46.8%. Besides, for the setting “10 μM”, the inhibition at 10 µM was determined as 54.4%.

As for `Nc1nc(NC2CCCc3ccccc32)c2ncccc2n1` (stereo not drawn) [Compound 33, N^4-(1,2,3,4-tetrahydronaphthalen-1-yl)pyrido[3,2-d]pyrimidine-2,4-diamine], the inhibition at 0.05 µM (50 nM) is 30.5%. Moreover, the inhibition at 0.1 µM (100 nM) amounted to 53.2%. For the same molecule, the inhibition at 10 µM (10 μM) was 71.5%.

In the case of `Clc1ccc(CNc2ncnc3cccnc23)cc1Cl` [Compound 14, N-(3,4-Dichlorobenzyl)pyrido[3,2-d]pyrimidin-4-amine], under “10 μM”, the inhibition at 10 µM is 1.52%.

Regarding `OC1CCC(Nc2ncnc3cccnc23)c2ccccc21` (stereo not drawn) [Compound 142-E3, 4-(Pyrido[3,2-d]pyrimidin-4-ylamino)tetralin-1-ol], the “% SK3 inhibition” value by setting is: (50 nM, 0.05 µM) 50 nM: 30.69 ± 3.07 (N = 4) %; (100 nM, 0.1 µM) 100 nM: 49.71 ± 4.48 (N = 4) %; (10 μM) 10 μM: 58.9 ± 6.08 (N = 4) %.

As to `Clc1ccc(CNc2ncc3ncccc3n2)cc1Cl` [Compound 4, N-(3,4-Dichlorobenzyl)pyrido[3,2-d]pyrimidin-2-amine], the inhibition at 10 µM (10 μM) amounted to 3.6%.

In the case of `c1ccc2c(c1)CCCC2Nc1ncnc2ncccc12` (stereo not drawn) [Compound 47, N-(1,2,3,4-Tetrahydronaphthalen-1-yl)pyrido[2,3-d]pyrimidin-4-amine], the inhibition at 10 µM (10 μM) is 7.54%.

For the molecule `Clc1cnc2c(NC3CCCc4ccccc43)ncnc2c1` (stereo not drawn) [Compound 38, 7-Chloro-N-(1,2,3,4-tetrahydronaphthalen-1-yl)pyrido[3,2-d]pyrimidin-4-amine], the inhibition at 0.05 µM (50 nM) was found to be 31.4%. In addition, the inhibition at 0.1 µM (100 nM) amounted to 51.9%. Further, the inhibition at 10 µM (10 μM) came to 74%.

As for `c1ccc2c(c1)CCC2Nc1ncnc2cccnc12` (stereo not drawn) [Compound 87, N-(2,3-dihydro-1H-inden-1-yl)pyrido[3,2-d]pyrimidin-4-amine], the inhibition at 0.5 µM is 47.4%. The inhibition at 0.05 µM (50 nM) turned out to be 22.9%.

Take `CCCCCCOc1cnc2c(NC3CCCc4ccccc43)ncnc2c1` (stereo not drawn) [Compound 74, 7-Hexoxy-N-tetralin-1-yl-pyrido[3,2-d]pyrimidin-3-ium-4-amine chloride]: the inhibition at 0.5 µM is 48.5%. For the same molecule, under “50 nM”, the inhibition at 0.05 µM was determined as 18.4%.

Regarding `OC1CCc2ccccc2C1Nc1ncnc2cccnc12` (stereo not drawn) [Compound 107, 1-(pyrido[3,2-d]pyrimidin-4-ylamino)-1,2,3,4-tetrahydro-naphthalen-2-ol], the inhibition at 0.05 µM (50 nM) is 29.7%. Also, where the note is “100 nM”, the inhibition at 0.1 µM was determined as 46.8%. Where the note is “10 μM”, the inhibition at 10 µM worked out at 54.7%.

In the case of `c1ccc2c(c1)CCCC2Nc1ncc2ncccc2n1` (stereo not drawn) [Compound 5, N-(1,2,3,4-Tetrahydronaphthalen-1-yl)pyrido[3,2-d]pyrimidin-2-amine], the inhibition at 10 µM (10 μM) worked out at 7.7%.

Regarding `COc1cccc2c1CCCC2Nc1ncnc2cccnc12` (stereo not drawn) [Compound 88, N-(5-methoxy-1,2,3,4-tetrahydronaphthalen-1-yl)pyrido[3,2-d]pyrimidin-4-amine], the inhibition at 0.5 µM was 54.8%. Also, the inhibition at 0.05 µM (50 nM) was 25.8%.

For `Fc1nc(N[C@H]2CCCc3ccccc32)c2ncccc2n1` [Compound 49, (S)-2-Fluoro-N-(1,2,3,4-tetrahydronaphthalen-1-yl)pyrido [3,2-d]pyrimidin-4-amine], the inhibition at 0.5 µM came out at 75.8%. Further, the inhibition at 0.1 µM (100 nM) was 37.1%. The inhibition at 0.25 µM (250 nM) is 83.1%.

As for `Clc1nc(NC2CCCc3ccccc32)c2ncccc2n1` (stereo not drawn) [Compound 6, 2-Chloro-N-(1,2,3,4-tetrahydronaphthalen-1-yl)pyrido[3,2-d]pyrimidin-4-amine], the inhibition at 10 µM (10 μM) came to 2.65%.

With `Fc1cnc2c(N[C@H]3CCCc4ccccc43)ncnc2c1` [Compound 158, 7-Fluoro-N-[(1S)-tetralin-1-yl]pyrido[3,2-d]pyrimidin-4-amine], under “50 nM”, the inhibition at 0.05 µM was found to be 35.8%. In addition, the inhibition at 0.1 µM (100 nM) is 64.1%. Besides, under “10 μM”, the inhibition at 10 µM came out at 84.8%.

On to `CC1(C)CCC(Nc2ncnc3cccnc23)c2ccccc21` (stereo not drawn) [Compound 93, N-(4,4-dimethyl-1,2,3,4-tetrahydronaphthalen-1-yl)pyrido[3,2-d]pyrimidin-4-amine], for which, under “50 nM”, the inhibition at 0.05 µM was determined as 45.9%. Also, the inhibition at 0.1 µM (100 nM) amounted to 53.5%. Where the note is “10 μM”, the inhibition at 10 µM is 71.8%.

Take `c1ccc2c(Nc3ncnc4cccnc34)cccc2c1` [Compound 86, N-(1-Naphtyl)pyrido[3,2-d]pyrimidin-4-amine]: the inhibition at 0.5 µM turned out to be 18%. For the same molecule, the inhibition at 0.05 µM (50 nM) was -9.01%.

Take `N#Cc1nc(NC2CCCc3ccccc32)c2ncccc2n1` (stereo not drawn) [Compound 32, 4-(1,2,3,4-tetrahydronaphthalen-1-ylamino)pyrido[3,2-d]pyrimidine-2-carbonitrile]: the inhibition at 0.5 µM is 27.7%. Further, the inhibition at 0.05 µM (50 nM) was 23.6%.

For `Clc1ccc2ncnc(N[C@H]3CCCc4ccccc43)c2n1` [Compound 133, 6-Chloro-N-[(1S)-tetralin-1-yl]pyrido[3,2-d]pyrimidin-4-amine], the inhibition at 0.05 µM (50 nM) came out at 39%. The inhibition at 0.1 µM (100 nM) amounted to 56.3%. Moreover, the inhibition at 10 µM (10 μM) was 67.3%.
